Article PMC11079064, “Discovery of a brain penetrant small molecule antagonist targeting LPA1 receptors to reduce neuroinflammation and promote remyelination in multiple sclerosis” (Scientific Reports, 2024)
Where two headings read alike, the source gives them in different places.

Tests used:
[1] = tested on: rat oligodendrocytes; experiment: Oligodendrocyte protection assay (TNFα/IFNγ insult); format: cell-based; conditions: TNFα and IFNγ insult
From the text: TNFα and IFNγ are two cytokines that, while not normally expressed in the CNS, are elevated in MS[29]. These cytokines can be secreted by both macrophages and microglia[30],[31]. Receptors for these cytokines (TNFR1, TNFR2, and IFNGR) are expressed in oligodendrocytes. Of note, TNFR1 and 2 have been found on oligodendrocytes bordering MS lesions[23],[32], [33]. Further, although receptor expression for these cytokines on OPCs is unknown, addition of either of these cytokines impact differentiation in isolated OPC cultures[28],[34]. Cultured rat OPCs were differentiated with T3 for 24 h then treated with both TNFα and IFNγ Upon cytokine addition, we observed significant cell death consistent with previous observations (Fig. 6C, left[22],[35]–[37]).
OPC Assay: OPCs were plated in poly-L-lysine (Millipore Sigma, St. Louis, MO) coated 96-well Viewplates™ (Perkin Elmer, Boston, MA) at a seeding density of […] per well. Cells were maintained in media composed of DMEM (Invitrogen, Carlsbad, CA) supplemented with B27 (Invitrogen, Carlsbad, CA), N2 (Invitrogen, Carlsbad, CA), penicillin–streptomycin (Invitrogen, Carlsbad, CA), N-acetylcysteine (Millipore Sigma, St. Louis, MO), forskolin (Millipore Sigma, St. Louis, MO), and 25 ng/ml PDGF-AA (Peprotech, Cranbury, New Jersey) for 24 h at 37°, 5% CO2. Compounds were diluted 10× at a concentration range of 0.001–3 µM. […]

[2] = tested on: microglia; experiment: Microglial myelin debris phagocytosis assay; format: cell-based, rat; conditions: any concentration, activated microglia, 90 min myelin debris
Method: Fluoromyelin-labeled myelin debris was added for 90 min and then the cultures were fixed. IBA1^+/fluoromyelin^+ cells were quantified and normalized to total IBA1^+ cells.
For phagocytosis, microglia were harvested from cortical cultures generated from P2 rats. Cortices were isolated, meninges removed, minced and digested in 0.05% trypsin (Invitrogen, Carlsbad, CA, Carlsbad, CA) for 15 min at 37 °C. Tissue was allowed to settle, trypsin removed and HBSS (Corning, Glendale, AZ) with 20% FBS (20% HBSS) was added to halt further digestion. Tissue was washed again in 20% HBSS and resuspended in DMEM with 10% FBS and penicillin/streptomycin (10% DMEM). Cells were plated in a T150 flask and cultured for 10 days with media changes every other day. Microglia were mechanically isolated by tapping flask against the hood surface. Microglia were transferred to a conical and centrifuged at 800 × g for 15 min and resuspended in 10% DMEM, plated in 96 wells at a density of 5000/well and cultured for 3 days. […] Fluoromyelin labeled myelin debris was added to each well and incubated for 90 min. Microglia were then fixed and immunostained for IBA1 (Invitrogen, Carlsbad, CA, Carlsbad, CA). […]
Supplemental Figure 7. […] Total IBA1^+ and IBA1^+/fluoromyelin^+ cells were counted. […]

[3] = tested on: MOG-EAE mouse model; experiment: MOG-EAE mouse model, visual evoked potentials; format: in vivo; conditions: day 21
Method: To further assess myelin status, we measured conductance velocity in the optic nerve, a heavily myelinated tract that is sensitive to demyelination. To measure conductance, we utilized visual evoked potentials (VEPs), a measure for which clinical translatability makes it an especially salient endpoint[42],[43]. VEPs were measured on day 21. […] In comparison, latency in MOG immunized animals had slowed to 60.9 ms.
VEP recordings were conducted 21–24 days post-MOG induction (for simplification, this will be referred to as a nominal Day 21 VEP throughout this document). To do this, animals were placed in a room with red light conditions and allowed to adapt for 1 h. Animals were anesthetized with an intraperitoneal injection of ketamine/Xyalazine (75/10 mg/kg). Pupils were dilated with 1.0% tropicamide (1 drop per eye) (Akorn Pharmaceuticals, Lake Forest, IL). One minute following application tropicamide, one drop of Genteal (Alcon Laboratories, Fort Worth, TX) was applied to each eye to maintain ocular moisture during anesthesia.
VEPs were conducted using a Celeris system (Diagnosys, Lowell, MA). […] Flash VEPs were recorded from each eye independently and simultaneously. […] VEP waveforms were analyzed using Espion (Diagnosys, Lowell, MA). N1 latency for each eye was determined by averaging N1 from 3 independent VEP traces. Similarly, P1–N1 and N1–P1 amplitudes were determined. […]

## COc1ccc(NC(=O)N(c2ccccc2C(C)C)C2CCC(C(=O)O)CC2)c(OC(F)F)n1 (centres unmarked) [PIPE-791]
[1]; data not shown, read-out: EC50 of total cellular viability with Alamar blue
  EC50: 0.0396 µM
[1]; read-out: EC50 of protection of MBP+ oligodendrocytes
  EC50: 0.125 µM
[2]
  effect on myelin phagocytosis compared to vehicle: No significant decrease
[3]; 0.3 mg/kg
  VEP N1 latency: 54.6 ms
[3]; 3 mg/kg
  VEP N1 latency: 52 ms
